In patent US10905704B2, “Agents and methods using thereof for the prevention and treatment of stem cell muscle disorders” (ECOLE POLYTECHNIQUE FEDERALE DE LAUSANNE (EPFL), priority 2015, dated 2021):

System: C2C12 cells
Assay: Western blot of UPRmt, prohibitins and cell cycle proteins in TAP-treated C2C12 cells
Type: cell-based, mouse
Conditions: 50 μg/ml TAP, FIG. 7
Procedure: Western blotting. C2C12 cells were lysed in a buffer composed of 50 mM Tris, 150 mM KCl, EDTA 1 mM, NP40 1%, nicotinamide 5 mM, sodium butyrate 1 mM and protease inhibitors cocktail (Roche) at pH 7,4. Proteins were separated by SDS-PAGE and transferred onto nitrocellulose membranes. Blocking and antibody incubations were performed in 3% BSA. The following primary antibodies were used: anti-cleavage caspase 3 (Cell Signalling); Anti-γH2AX (Millipore); anti-β-actin (Sigma). All secondary antibodies were from Jackson Immunoresearch. Antibody detection reactions were developed by enhanced chemiluminescence (Advansta, Calif., USA) using x-ray films or imaged using the c300 imaging system (Azure Biosystems). The following primary antibodies were used: anti-HSP60 (Enzo Life Science); anti-PHB (Biolegend); anti-PHB2 (Santa Cruz); anti-CKD4 (Novus biologicals); anti-CCND1 (Santa Cruz); anti-CCND3 (Santa Cruz); anti-HSP90 (BD Biosciences); HSP70 (Abcam); anti-MT-CO1 (Bio legend); anti-ATP5A (Bio legend); anti-Grp78 (Abcam); and anti-CLPP (Sigma).

CS(=O)(=O)c1ccc([C@@H](O)[C@@H](CO)NC(=O)C(Cl)Cl)cc1 [thiamphenicol]
UPRmt induction: UPR^mt induction
cell cycle gene expression: induced
prohibitins expression: induced
